pEC50: −log10 of the molar value.

One experiment addresses T1, RORγ-LBD (Homo sapiens, UniProt P51449).
T1 construct: made in house; host or cells: SF9 cells (baculovirus); used as diluted lysate
T1 sequence (P51449 269-508 limits assumed): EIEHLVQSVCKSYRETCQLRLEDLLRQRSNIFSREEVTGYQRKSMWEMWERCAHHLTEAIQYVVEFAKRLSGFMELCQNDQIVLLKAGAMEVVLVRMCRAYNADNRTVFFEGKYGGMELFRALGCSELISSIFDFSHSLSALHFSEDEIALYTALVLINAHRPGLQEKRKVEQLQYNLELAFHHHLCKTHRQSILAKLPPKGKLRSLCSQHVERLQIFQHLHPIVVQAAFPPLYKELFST
Kind of experiment: RORγ-Ligand Binding Domain (LBD) TR-FRET Assay. The class given is biochemical. The settings on record: RORγ-LBD TR-FRET. A digest of the protocol:
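Lysate from SF9 cells expressing His-RORγ-LBD is diluted to about 3 nM final in 50 mM Tris pH 7.0 assay buffer. A biotin-tagged SRC1 LXXLL peptide goes in at 200 nM final, plus ursolic acid at 2 μM final. Test compounds carry 1% DMSO final; signal read by TR-FRET.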
In general terms: In TR-FRET formats the signal depends on donor and acceptor labels being close together.

The target of another experiment is T2, Gal4-RORγ-LBD (Homo sapiens, UniProt P51449).
T2 construct: expressed in transfected cells
T2 sequence (P51449 269-508 limits assumed): T1 sequence (P51449 269-508 limits assumed)
Kind of experiment: Gal4-RORγ Luciferase Reporter Assay in HEK-293T Cells. In kind it is cell-based. The settings on record: HEK-293 cells, luciferase reporter, with ursolic acid. A digest of the protocol: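 Max Response was taken as the upper plateau of a 4-parameter logistic fit of luciferase signal, normalized to 100 for wells without ursolic acid or compound. Transiently Gal4-RORγ-LBD/Gal4-luc transfected HEK-293 cells carrying […] ursolic acid were incubated with test compounds (0.2% DMSO) overnight at 37 °C and read with One-Glo.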
Background: In a reporter assay the amount or activity of a reporter protein is the signal.

A word on the pEC50: it is the EC50 on a negative log10 scale, so that one unit is a factor of ten. As to `CCOc1nn(CC)cc1S(=O)(=O)N1C[C@H](CCC(=O)O)Oc2ccc(/C=C/c3cccc(OC)n3)cc21` [Example 89S, (S,E)-3-(4-((3-ethoxy-1-ethyl-1H-pyrazol-4-yl)sulfonyl)-6-(2-(6-methoxypyridin-2-yl)vinyl)-3,4-dihydro-2H-benzo[b][1,4]-oxazin-2-yl)propanoic acid], the results for the pEC50 at RORγ-LBD and on Gal4-RORγ-LBD were 5.30 to 6.30 and < 5.00, respectively.
The matching figures for `CCOc1nn(CC)cc1S(=O)(=O)N1C[C@H](CCC(=O)OC)Oc2ccc(/C=C/c3cccc(OC)n3)cc21` [Example 89T, (S,E)-methyl 3-(4-((3-ethoxy-1-ethyl-1H-pyrazol-4-yl)-sulfonyl)-6-(2-(6-methoxypyridin-2-yl)vinyl)-3,4-dihydro-2H-benzo[b][1,4]-oxazin-2-yl)propanoate]: < 5.00 and < 5.00.
For `CCOc1nn(CC)cc1S(=O)(=O)N1C[C@H](CCC(=O)O)Oc2ccc(/C=C/c3ncccc3F)cc21` [Example 89W, (S,E)-3-(4-((3-ethoxy-1-ethyl-1H-pyrazol-4-yl)sulfonyl)-6-(2-(3-fluoropyridin-2-yl)vinyl)-3,4-dihydro-2H-benzo[b][1,4]-oxazin-2-yl)propanoic acid], the pEC50 was 5.00 to 5.30 at RORγ-LBD and < 5.00 on Gal4-RORγ-LBD.
The like results for `CCOc1nn(CC)cc1S(=O)(=O)N1C[C@H](CCC(=O)OC)Oc2ccc(/C=C/c3ncccc3F)cc21` [Example 89X, (S,E)-methyl 3-(4-((3-ethoxy-1-ethyl-1H-pyrazol-4-yl)-sulfonyl)-6-(2-(3-fluoropyridin-2-yl)vinyl)-3,4-dihydro-2H-benzo[b][1,4]oxazin-2-yl)propanoate] were, in that order, 5.30 to 6.30 and < 5.00.
The like results for `COC(=O)CC[C@H]1CN(S(=O)(=O)c2cccc(C(F)(F)F)c2)c2cc(C=C3CCCCC3)ccc2O1` [Example 90, Methyl (S)-3-(6-(cyclohexylidenemethyl)-4-((3-(trifluoromethyl)phenyl)sulfonyl)-3,4-dihydro-2H-benzo[b][1,4]oxazin-2-yl)propanoate] were, in that order, > 6.30 and 5.30 to 6.30.
Take `O=C(O)CC[C@H]1CN(S(=O)(=O)c2cccc(C(F)(F)F)c2)c2cc(C=C3CCCCC3)ccc2O1` [Example 91, (S)-3-(6-(Cyclohexylidenemethyl)-4-((3-(trifluoromethyl)phenyl)sulfonyl)-3,4-dihydro-2H-benzo[b][1,4]oxazin-2-yl)propanoic acid]: the pEC50 is > 6.30 at RORγ-LBD and 5.30 to 6.30 on Gal4-RORγ-LBD.
The like results for `O=C(O)CC[C@H]1CN(S(=O)(=O)c2cccc(C(F)(F)F)c2)c2cc(C=C3CCCC3)ccc2O1` [Example 92, (S)-3-(6-(Cyclopentylidenemethyl)-4-((3-(trifluoromethyl)phenyl)sulfonyl)-3,4-dihydro-2H-benzo[b][1,4]oxazin-2-yl)propanoic acid] were, in that order, > 6.30 and 5.30 to 6.30.
For `O=C(O)CC[C@H]1CN(S(=O)(=O)c2cccc(C(F)(F)F)c2)c2cc(CC3CCCCC3)ccc2O1` [Example 93, (S)-3-(6-(Cyclohexylmethyl)-4-((3-(trifluoromethyl)phenyl)sulfonyl)-3,4-dihydro-2H-benzo[b][1,4]oxazin-2-yl)propanoic acid], the pEC50 on RORγ-LBD is > 6.30; at Gal4-RORγ-LBD it was 5.30 to 6.30.
For the molecule `O=C(O)CC[C@H]1CN(S(=O)(=O)c2cccc(C(F)(F)F)c2)c2cc(C=C3CCC(O)CC3)ccc2O1` (some centres unmarked) [Example 94], the pEC50 at RORγ-LBD is > 6.30; on Gal4-RORγ-LBD it was 5.30 to 6.30.
The matching figures for `C[C@@H]1C/C(=C\c2ccc3c(c2)N(S(=O)(=O)c2cc(C(F)(F)F)cnc2OCCO)C[C@H](CCC(=O)O)O3)C[C@H](C)C1` [Example 95AA, 3-((S)-6-((E)-((3R,5S)-3,5-dimethylcyclohexylidene)-methyl)-4-((2-(2-hydroxy-ethoxy)-5-(trifluoromethyl)-pyridin-3-yl)sulfonyl)-3,4-dihydro-2H-benzo[b][1,4]oxazin-2-yl)propanoic acid]: > 6.30 and 5.30 to 6.30.
The like results for `CC(C)=Cc1ccc2c(c1)N(S(=O)(=O)c1cccc(C(F)(F)F)c1)C[C@H](CCC(=O)O)O2` [Example 95AB, (S)-3-(6-(2-methylprop-1-en-1-yl)-4-((3-(trifluoromethyl)-phenyl)sulfonyl)-3,4-dihydro-2H-benzo[b][1,4]oxazin-2-yl)propanoic acid] were, in that order, > 6.30 and 5.30 to 6.30.
The matching figures for `COC(=O)CC[C@H]1CN(S(=O)(=O)c2cc(C(F)(F)F)cnc2OCCO)c2cc(C=C(C)C)ccc2O1` [Example 95AD, methyl (S)-3-(4-((2-(2-hydroxyethoxy)-5-(trifluoromethyl)pyridin-3-yl)sulfonyl)-6-(2-methylprop-1-en-1-yl)-3,4-dihydro-2H-benzo[b][1,4]oxazin-2-yl)propanoic acid]: > 6.30 and 5.30 to 6.30.
As to `CCOc1ncc(C(F)(F)F)cc1S(=O)(=O)N1C[C@H](CCC(=O)O)Oc2ccc(C=C3CCCCC3)cc21` [Example 95B, (S)-3-(6-(cyclohexylidenemethyl)-4-((2-ethoxy-5-(trifluoromethyl)pyridin-3-yl)sulfonyl)-3,4-dihydro-2H-benzo[b][1,4]oxazin-2-yl)propanoic acid], the pEC50 at RORγ-LBD is > 6.30; on Gal4-RORγ-LBD it was 5.30 to 6.30.
Regarding `O=C(O)CC[C@H]1CN(S(=O)(=O)c2cc(C(F)(F)F)cnc2OCCO)c2cc(C=C3CCCCC3)ccc2O1` [Example 95C, (S)-3-(6-(cyclohexylidenemethyl)-4-((2-(2-hydroxyethoxy)-5-(trifluoromethyl)pyridin-3-yl)sulfonyl)-3,4-dihydro-2H-benzo[b][1,4]oxazin-2-yl)propanoic acid], the pEC50 was > 6.30 on RORγ-LBD and 5.30 to 6.30 on Gal4-RORγ-LBD.
The like results for `O=C(O)CC[C@H]1CN(S(=O)(=O)c2cc(C(F)(F)F)cnc2OCCO)c2cc(CC3CCCCC3)ccc2O1` [Example 95D, (S)-3-(6-(cyclohexylmethyl)-4-((2-(2-hydroxyethoxy)-5-(trifluoromethyl)pyridin-3-yl)sulfonyl)-3,4-dihydro-2H-benzo[b][1,4]oxazin-2-yl)propanoic acid] were, in that order, > 6.30 and 5.30 to 6.30.
The like results for `CCC(=Cc1ccc2c(c1)N(S(=O)(=O)c1cccc(C(F)(F)F)c1)C[C@H](CCC(=O)O)O2)CC` [Example 95E, (S)-3-(6-(2-ethylbut-1-en-1-yl)-4-((3-(trifluoromethyl)phenyl)-sulfonyl)-3,4-dihydro-2H-benzo[b][1,4]oxazin-2-yl)propanoic acid] were, in that order, > 6.30 and > 6.30.
For the molecule `CCC(=Cc1ccc2c(c1)N(S(=O)(=O)c1cc(C(F)(F)F)cnc1OCCO)C[C@H](CCC(=O)O)O2)CC` [Example 95F, (S)-3-(6-(2-ethylbut-1-en-1-yl)-4-((2-(2-hydroxyethoxy)-5-(trifluoromethyl)pyridin-3-yl)sulfonyl)-3,4-dihydro-2H-benzo[b][1,4]oxazin-2-yl)propanoic acid], the results for the pEC50 at RORγ-LBD and at Gal4-RORγ-LBD were > 6.30 and 5.30 to 6.30, respectively.
On to `CC1CCC/C(=C\c2ccc3c(c2)N(S(=O)(=O)c2cccc(C(F)(F)F)c2)C[C@H](CCC(=O)O)O3)C1` (stereo partly drawn) [Example 95G, 3-((2S)-6-((E)-(3-methylcyclo-hexylidene)methyl)-4-((3-(trifluoromethyl)phenyl)sulfonyl)-3,4-dihydro-2H-benzo[b][1,4]-oxazin-2-yl)propanoic acid], for which the negative logarithm of the EC50 (pEC50) on RORγ-LBD is > 6.30; at Gal4-RORγ-LBD, 5.30 to 6.30.
Consider `CC1(C)CCC(=Cc2ccc3c(c2)N(S(=O)(=O)c2cccc(C(F)(F)F)c2)C[C@H](CCC(=O)O)O3)CC1` [Example 95H, (S)-3-(6-((4,4-dimethylcyclo-hexylidene)methyl)-4-((3-(trifluoromethyl)phenyl)sulfonyl)-3,4-dihydro-2H-benzo[b][1,4]oxazin-2-yl)propanoic acid], for which the pEC50 on RORγ-LBD was > 6.30; at Gal4-RORγ-LBD, 5.30 to 6.30.
In the case of `O=C(O)CC[C@H]1CN(S(=O)(=O)c2cccc(C(F)(F)F)c2)c2cc(/C=C3/CCCOC3)ccc2O1` [Example 95J, (S,Z)-3-(6-((dihydro-2H-pyran-3(4H)-ylidene)methyl)-4-((3-(trifluoromethyl)phenyl)sulfonyl)-3,4-dihydro-2H-benzo[b][1,4]oxazin-2-yl)propanoic acid], the figures for the pEC50 on RORγ-LBD and on Gal4-RORγ-LBD were > 6.30 and 5.30 to 6.30, respectively.
As for `CC1CCC(=Cc2ccc3c(c2)N(S(=O)(=O)c2cccc(C(F)(F)F)c2)C[C@H](CCC(=O)O)O3)CC1` (stereo partly drawn) [Example 95K, 3-((2S)-6-((4-methylcyclo-hexylidene)methyl)-4-((3-(trifluoromethyl)phenyl)sulfonyl)-3,4-dihydro-2H-benzo[b][1,4]oxazin-2-yl)propanoic acid], the pEC50 on RORγ-LBD is > 6.30; on Gal4-RORγ-LBD, 5.30 to 6.30.
The matching figures for `O=C(O)CC[C@H]1CN(S(=O)(=O)c2cccc(C(F)(F)F)c2)c2cc(C=C3CCC(F)(F)CC3)ccc2O1` [Example 95L, (S)-3-(6-((4,4-difluorocyclo-hexylidene)methyl)-4-((3-(trifluoromethyl)phenyl)sulfonyl)-3,4-dihydro-2H-benzo[b][1,4]oxazin-2-yl)propanoic acid]: > 6.30 and > 6.30.

Values taken from patent US9896441B2 (Lycera Corporation, priority 2014, dated 2018).
